Experimental data taken from patent US9777020B2, “Furo-3-carboxamide derivatives and methods of use” (AbbVie Inc., priority 2014, dated 2017).
Marks after values point to notes of the source that are not given here.

How the values were obtained:
TrkA = TrkA (Homo sapiens (Human), UniProt P04629); assay: TrkA kinase HTRF enzyme inhibition assay; type: biochemical; details: TrkA pre-incubated with 200 μM ATP
In short: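 TrkA (2-10 nM) pre-activated 20 min with 200 μM ATP in HEPES pH 7.4/Mg/Mn buffer, compound added for 10 min, then biotinylated LCK-analog peptide (125 nM) for 1 h at ambient temperature. HTRF phosphotyrosine detection (665/620 ratio); duplicate half-log dilutions, IC50 from initial-rate inhibition via equation 1.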

[1] = test system: MIA-induced osteoarthritis pain; assay: Rat model of mono-iodoacetic acid (MIA) induced osteoarthritis pain, hind limb grip force; type: in vivo; details: mean percent effect
Protocol: Members of the TrkA inhibitors described above were tested and found effective in reducing osteoarthritis pain. The compounds tested were assessed in an in vivo model well known to those skilled in the art, the rat model of mono-iodoacetic acid induced osteoarthritis pain. A general review of various models of pain can be found in Joshi and Honore, Expert Opinion in Drug Discovery (2004) 1, pp. 323-334, and in the book ‘Drug Discovery and Evaluation, 2nd edition (H. Gerhard Vogel, editor; Springer-Verlag, New York, 2002; pp. 702-706). Pain behavior was assessed by measurement of hind limb grip force (GF) in adult osteoarthritic rats. Male Sprague Dawley rats, generally weighing 125-150 g, were injected in the unilateral knee join with a single intra-articular injection of sodium monoiodoacetate (MIA). Rats were tested at 21-28 days following MIA injection. A behavioral measure of activity-induced pain was carried out. Measurements of the peak hind limb grip force were conducted by recording the maximum compressive force (CFmax), in grams of force, exerted on a hind limb strain gauge setup, in a commercially available grip force measurement system (Columbus Instruments, Columbus, Ohio). During testing, each rat was gently restrained by grasping it around its rib cage and then allowed to grasp the wire mesh frame attached to the strain gauge. The experimenter then moved the animal in a rostral-to-caudal direction until the grip was broken. Each rat was sequentially tested twice at an approximately 2-3 minute interval to obtain a raw mean grip force (CFmax). This raw mean grip force data was in turn converted to a maximum hindlimb cumulative compressive force (CFmax), as the grams of force/kg of body weight, for each animal. For evaluating the compound effects, the hind limb grip force testing in the MIA-treated rats was conducted generally 30-60 minutes after dosing with the test compound. A group of age-matched naïve (not injected with MIA) animals was added as a comparator to the drug-dosed groups. The vehicle control response for each group of MIA-treated animals was defined as the 0% response (0% effect), whereas the naïve control group was defined as the normal response and as 100% effect. The % effect=(Treatment CFmax−Vehicle CFmax)[…]]×100). Higher % effect numbers indicate increased relief from the pain in the model, with 100% indicating a return to the level of response seen in normal (non-osteoarthritic) animals. All experiments evaluating drug effects in this model were conducted in a randomized blinded fashion. Male Sprague Dawley rats (generally 250-300 g body weight at the time of testing) obtained from Charles River Laboratories (Wilmington, Mass.) were used for all experiments, unless indicated otherwise. The animals were housed in Association for Assessment and Accreditation of Laboratory Animal Care (AAALAC) approved facilities at AbbVie in a temperature-regulated environment under a controlled 12-hour light-dark cycle, with lights on at 6:00 a.m. Food and water were available ad libitum at all times except during testing. All testing was done following procedures outlined in protocols approved by AbbVie Institutional Animal Care and Use Committee.

[2] = 30 mg/kg p.o., tested 30-60 minutes postdosing

TrkA, sequence (P04629 33-796): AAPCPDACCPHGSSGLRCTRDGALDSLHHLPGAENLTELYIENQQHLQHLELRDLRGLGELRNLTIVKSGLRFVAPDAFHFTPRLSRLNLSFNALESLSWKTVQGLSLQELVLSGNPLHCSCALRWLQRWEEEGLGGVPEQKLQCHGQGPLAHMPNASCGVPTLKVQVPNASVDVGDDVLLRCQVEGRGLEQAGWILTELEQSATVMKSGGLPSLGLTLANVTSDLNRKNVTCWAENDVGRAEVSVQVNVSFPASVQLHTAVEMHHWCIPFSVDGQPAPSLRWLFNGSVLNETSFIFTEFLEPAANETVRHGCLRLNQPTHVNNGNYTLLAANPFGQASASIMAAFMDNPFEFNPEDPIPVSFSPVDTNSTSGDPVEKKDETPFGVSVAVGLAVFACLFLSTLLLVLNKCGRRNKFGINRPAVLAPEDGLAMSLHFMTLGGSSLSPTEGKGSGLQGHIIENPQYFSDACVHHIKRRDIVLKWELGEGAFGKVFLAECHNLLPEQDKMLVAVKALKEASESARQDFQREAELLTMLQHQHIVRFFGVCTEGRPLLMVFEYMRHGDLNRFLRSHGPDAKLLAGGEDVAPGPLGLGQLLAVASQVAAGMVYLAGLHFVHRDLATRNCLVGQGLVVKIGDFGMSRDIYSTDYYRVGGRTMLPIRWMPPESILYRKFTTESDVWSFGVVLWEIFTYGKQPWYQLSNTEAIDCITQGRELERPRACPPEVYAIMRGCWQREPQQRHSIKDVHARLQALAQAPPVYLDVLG

In the case of `COc1nc(N2CCN(C(=O)N3CCOCC3)CC2)ccc1NC(=O)c1coc2c1C(=O)NC(C)(C)C2` [Example 121, N-{2-methoxy-6-[4-(morpholin-4-ylcarbonyl)piperazin-1-yl]pyridin-3-yl}-6,6-dimethyl-4-oxo-4,5,6,7-tetrahydrofuro[3,2-c]pyridine-3-carboxamide], the IC50 (TrkA) is reported as 18.1 nM and the “% Effect (hind limb grip force, MIA model)” value (“% Effect” for short) [1, 2] is reported as 74% ***.

With `COc1cc(N2CCN(C(C)=O)CC2)ccc1NC(=O)c1coc2c1C(=O)NC(C)(C)C2` [Example 126, N-[4-(4-acetylpiperazin-1-yl)-2-methoxyphenyl]-6,6-dimethyl-4-oxo-4,5,6,7-tetrahydrofuro[3,2-c]pyridine-3-carboxamide] the IC50 (TrkA) was 25 nM and the “% Effect” value ([1]; 100 mg/kg p.o., tested 3 hours post dose) was 47% **.

With `CCOc1nc(N2CCN(C(C)=O)CC2)ccc1NC(=O)c1coc2c1C(=O)N[C@@H]([C@@H](C)O)C2` [Example 115, (6R)—N-[6-(4-acetylpiperazin-1-yl)-2-ethoxypyridin-3-yl]-6-[(1R)-1-hydroxyethyl]-4-oxo-4,5,6,7-tetrahydrofuro[3,2-c]pyridine-3-carboxamide] the IC50 (TrkA) was 8.5 nM.

Compound `CC(=O)N1CCN(c2ccc(NC(=O)c3coc4c3C(=O)NC(C)(C)C4)c(OC(C)C)n2)[C@H](CO)C1` [Example 134, N-{6-[(2S)-4-acetyl-2-(hydroxymethyl)piperazin-1-yl]-2-isopropoxypyridin-3-yl}-6,6-dimethyl-4-oxo-4,5,6,7-tetrahydrofuro[3,2-c]pyridine-3-carboxamide] has an IC50 (TrkA) of 3.9 nM.

With `CC(=O)N1CCN(c2ccc(NC(=O)c3coc4c3C(=O)N(CCO)CC4)c(OCCO)n2)CC1` [Example 88, N-[6-(4-acetylpiperazin-1-yl)-2-(2-hydroxyethoxyl)pyridin-3-yl]-5-(2-hydroxyethyl)-4-oxo-4,5,6,7-tetrahydrofuro[3,2-c]pyridine-3-carboxamide] the IC50 (TrkA) was 95 nM.

With `CCOc1nc(N2CCN(C(C)=O)CC2)ccc1NC(=O)c1coc2c1C(=O)N(CCCCO)CC2` [Example 90, N-[6-(4-acetylpiperazin-1-yl)-2-ethoxypyridin-3-yl]-5-(4-hydroxybutyl)-4-oxo-4,5,6,7-tetrahydrofuro[3,2-c]pyridine-3-carboxamide] the IC50 (TrkA) was 4.7 nM.

For `O=C(Nc1ccc(F)cn1)c1coc2c1C(=O)NCC2` [Example 40, N-(5-fluoropyridin-2-yl)-4-oxo-4,5,6,7-tetrahydrofuro[3,2-c]pyridine-3-carboxamide], the IC50 (TrkA) was 3240 nM.

With `COc1nc(N2CCN(C)CC2)ccc1NC(=O)c1coc2c1C(=O)NCCC2` [Example 7, N-[2-methoxy-6-(4-methylpiperazin-1-yl)pyridin-3-yl]-4-oxo-5,6,7,8-tetrahydro-4H-furo[3,2-c]azepine-3-carboxamide] the IC50 (TrkA) was 212 nM.

With `CCOc1nc(N2CCN(C(C)=O)CC2)ccc1NC(=O)c1coc2c1C(=O)N(CCO)CC2` [Example 9, N-[6-(4-acetylpiperazin-1-yl)-2-ethoxypyridin-3-yl]-5-(2-hydroxyethyl)-4-oxo-4,5,6,7-tetrahydrofuro[3,2-c]pyridine-3-carboxamide] the “% Effect” value [1, 2] was 69% **.

With `CN1CCc2occ(C(=O)Nc3nc4ccccc4s3)c2C1=O` [Example 75, N-(1,3-benzothiazol-2-yl)-5-methyl-4-oxo-4,5,6,7-tetrahydrofuro[3,2-c]pyridine-3-carboxamide] the IC50 (TrkA) was 2050 nM.

In the case of `COc1nc(N2CCN(C(C)=O)CC2)ccc1NC(=O)c1coc2c1C(=O)C(C)(C)OC2` [Example 171, N-[6-(4-acetylpiperazin-1-yl)-2-methoxypyridin-3-yl]-5,5-dimethyl-4-oxo-4,7-dihydro-5H-furo[2,3-c]pyran-3-carboxamide], the IC50 (TrkA) is reported as 2.9 nM.

With `CN1CCN(CCn2cc3cc(NC(=O)c4coc5c4C(=O)NCC5)ccc3n2)CC1` [Example 52, N-{2-[2-(4-methylpiperazin-1-yl)ethyl]-2H-indazol-5-yl}-4-oxo-4,5,6,7-tetrahydrofuro[3,2-c]pyridine-3-carboxamide] the IC50 (TrkA) was 18.4 nM.

Work on `CC(=O)N1CCN(c2ccc(NC(=O)c3coc4c3C(=O)N(C)CC4)cc2)CC1` [Example 28, N-[4-(4-acetylpiperazin-1-yl)phenyl]-5-methyl-4-oxo-4,5,6,7-tetrahydrofuro[3,2-c]pyridine-3-carboxamide] yielded an IC50 (TrkA) of 110 nM.

With `CCOc1nc(CO)ccc1NC(=O)c1coc2c1C(=O)NC(C)(C)C2` [Example 144, N-[2-ethoxy-6-(hydroxymethyl)pyridin-3-yl]-6,6-dimethyl-4-oxo-4,5,6,7-tetrahydrofuro[3,2-c]pyridine-3-carboxamide] the IC50 (TrkA) was 49.2 nM.

`O=C(Nc1ccc2c(cnn2CCN2CCCC2)c1)c1coc2c1C(=O)NCC2` [Example 54, 4-oxo-N-{1-[2-(pyrrolidin-1-yl)ethyl]-1H-indazol-5-yl}-4,5,6,7-tetrahydrofuro[3,2-c]pyridine-3-carboxamide] showed an IC50 (TrkA) of 108 nM.

`COc1cc(N2CCN(C(=O)N3CCCC3)CC2)ccc1NC(=O)c1coc2c1C(=O)NCC2` [Example 80, N-{2-methoxy-4-[4-(pyrrolidin-1-ylcarbonyl)piperazin-1-yl]phenyl}-4-oxo-4,5,6,7-tetrahydrofuro[3,2-c]pyridine-3-carboxamide] showed an IC50 (TrkA) of 67.7 nM.

`O=C(Nc1ccon1)c1coc2c1C(=O)NCC2` [Example 36, N-(1,2-oxazol-3-yl)-4-oxo-4,5,6,7-tetrahydrofuro[3,2-c]pyridine-3-carboxamide] showed an IC50 (TrkA) of 8010 nM.

`CCOc1nc(N2CCN(C(C)=O)CC2)ccc1NC(=O)c1coc2c1C(=O)N(CCO)C(C)(C)C2` [Example 174, N-[6-(4-acetylpiperazin-1-yl)-2-ethoxypyridin-3-yl]-5-(2-hydroxyethyl)-6,6-dimethyl-4-oxo-4,5,6,7-tetrahydrofuro[3,2-c]pyridine-3-carboxamide] showed an IC50 (TrkA) of 5.2 nM.

`Cn1cc2cc(NC(=O)c3coc4c3C(=O)CN(S(C)(=O)=O)C4)ccc2n1` [Example 161, N-(2-methyl-2H-indazol-5-yl)-6-(methylsulfonyl)-4-oxo-4,5,6,7-tetrahydrofuro[2,3-c]pyridine-3-carboxamide] showed an IC50 (TrkA) of 872 nM.

For `Cc1nc2ccc(NC(=O)c3coc4c3C(=O)N(C)CC4)cc2s1` [Example 29, 5-methyl-N-(2-methyl-1,3-benzothiazol-6-yl)-4-oxo-4,5,6,7-tetrahydrofuro[3,2-c]pyridine-3-carboxamide], the IC50 (TrkA) was 169 nM.

Work on `COc1cc(N2CCNCC2)ccc1NC(=O)c1coc2c1C(=O)CC(C)(C)C2` [Example 157, N-[2-methoxy-4-(piperazin-1-yl)phenyl]-6,6-dimethyl-4-oxo-4,5,6,7-tetrahydro-1-benzofuran-3-carboxamide] yielded an IC50 (TrkA) of 6.4 nM.

Work on `CN1CCc2occ(C(=O)Nc3ccc(C#N)cc3)c2C1=O` [Example 67, N-(4-cyanophenyl)-5-methyl-4-oxo-4,5,6,7-tetrahydrofuro[3,2-c]pyridine-3-carboxamide] yielded an IC50 (TrkA) of 1080 nM.

For `CCOc1nc(N2CCN(C(C)=O)CC2)ccc1NC(=O)c1coc2c1C(=O)N(CCOC)C(C)(C)C2` [Example 175, N-[6-(4-acetylpiperazin-1-yl)-2-ethoxypyridin-3-yl]-5-(2-methoxyethyl)-6,6-dimethyl-4-oxo-4,5,6,7-tetrahydrofuro[3,2-c]pyridine-3-carboxamide], the IC50 (TrkA) was 4.7 nM.

With `CCOc1nc(N2CCN(C(C)=O)CC2)ccc1NC(=O)c1coc2c1C(=O)N(CCOC)CC2` [Example 84, N-[6-(4-acetylpiperazin-1-yl)-2-ethoxypyridin-3-yl]-5-(2-methoxyethyl)-4-oxo-4,5,6,7-tetrahydrofuro[3,2-c]pyridine-3-carboxamide] the IC50 (TrkA) was 5.3 nM.

`Cc1ccc(NC(=O)c2coc3c2C(=O)N(C)CC3)cc1` [Example 4, 5-methyl-N-(4-methylphenyl)-4-oxo-4,5,6,7-tetrahydrofuro[3,2-c]pyridine-3-carboxamide] gave an IC50 (TrkA) of 375 nM.

`CC(C)Oc1nc(N(CCO)CCO)ccc1NC(=O)c1coc2c1C(=O)NC(C)(C)C2` [Example 140, N-{6-[bis(2-hydroxyethyl)amino]-2-isopropoxypyridin-3-yl}-6,6-dimethyl-4-oxo-4,5,6,7-tetrahydrofuro[3,2-c]pyridine-3-carboxamide] gave an IC50 (TrkA) of 10.5 nM.
